US12331040B2 (Karyopharm Therapeutics Inc., priority 2013, dated 2025)
Like-named read-outs stand apart in the source and are kept apart here.

Legend:
Experiment in all cases: MTT cell proliferation assay
Format in all cases: cell-based
[1] = test system: MS751 cells; details: Homo sapiens, MS751, MS751 cells, approximately 64-72 hours incubation
Description: (§1) The MTT cell proliferation assay was used to study the cytotoxic properties of the compounds. The assay was performed according to the method described by Roche Molecular Biochemicals, with minor modifications. The assay is based on the cleavage of the tetrazolium salt, MTT, in the presence of an electron-coupling reagent. The water-insoluble formazan salt produced must be solubilized in an additional step. Cells grown in a 96-well tissue culture plate were incubated with the MTT solution for approximately 4 hours. After this incubation period, a water-insoluble formazan dye formed. After solubilization, the formazan dye was quantitated using a scanning multi-well spectrophotometer (ELISA reader). […] The cells were seeded at 5,000-10,000 cells in each well of 96-well plate in 100 μL of fresh culture medium and were allowed to attach overnight. The stock solutions of the compounds were diluted in 100 μL cell culture medium to obtain eight concentrations of each test compound, ranging from 1 nM to 30 μM. […] All optical densities were measured at 490 nm using a Vmax Kinetic Microplate Reader (Molecular Devices). In most cases, the assay was performed in duplicate and the results were presented as a mean percent inhibition to the negative control±SE. The following formula was used to calculate the percent of inhibition: Inhibition (%)=(1−(ODo/OD))×100.
(§2) The compounds were tested against MS751, Z138 and 3T3 cells. The MS751 cell line is derived from a metastasis to lymph node of human cervix from a patient diagnosed with squamous cell carcinoma of the cervix. The Z138 cell line is a mature B-cell acute lymphoblastic leukemia cell line derived from a patient with chronic lymphocytic leukemia. 3T3 cells are standard fibroblast cells; they were originally isolated from Swiss mouse embryo tissue.

[2] = test system: Z138 cells; details: Homo sapiens, Z-138, Z138 cells, approximately 64-72 hours incubation
Description: as §1, §2

[3] = test system: 3T3 cells; details: Mus musculus, NIH3T3, approximately 64-72 hours incubation
Description: as §1, §2

[4] = read-out: MTT Assay IC50, MS-751
[5] = read-out: MTT Assay IC50, Z-138
[6] = read-out: MTT Assay IC50 MS-751

| Structure (SMILES) | IC50 [1, 4] [nM] | IC50 [2, 5] [nM] | IC50 ([3]; read-out: MTT Assay IC50, 3T3) [µM] | IC50 [1, 6] [nM] | IC50 ([2]; read-out: MTT Assay IC50 Z-138) [nM] | IC50 ([3]; read-out: MTT Assay IC50 3T3) [µM] |
| --- | --- | --- | --- | --- | --- | --- |
| Nc1ccc(/C=C/C(=O)NCc2cc3cc(-c4ccc(C(=O)N5CCC(F)(F)CC5)cn4)cc(-c4ccc(F)cc4)c3o2)cn1 [Compound 665, (E)-3-(6-aminopyridin-3-yl)-N-((5-(5-(4,4-difluoropiperidine-1-carbonyl)pyridin-2-yl)-7-(4-fluorophenyl)benzofuran-2-yl)methyl)acrylamide] | < 100 | < 100 | 0.1 to 5 |  |  |  |
| Nc1ccc(/C=C/C(=O)NCc2cc3cc(-c4ccc(C(=O)N5CCNCC5)cn4)cc(Cl)c3o2)cn1 [Compound 589, (E)-3-(6-aminopyridin-3-yl)-N-((7-chloro-5-(5-(piperazine-1-carbonyl)pyridin-2-yl)benzofuran-2-yl)methyl)acrylamide] |  |  |  | 100 to 5000 | < 100 | > 10 |
| CC1(C)CN(S(=O)(=O)c2ccc(-c3cc(Cl)c4oc(CNC(=O)/C=C/c5ccc(N)nc5)cc4c3)cc2)C1 [Compound 555, (E)-3-(6-aminopyridin-3-yl)-N-((7-chloro-5-(4-(3,3-dimethylazetidin-1-ylsulfonyl)phenyl)benzofuran-2-yl)methyl)acrylamide] |  |  |  | 100 to 5000 | 100 to 5000 | > 10 |
| Nc1ccc(/C=C/C(=O)NCc2cc3cc(-c4ccc(C(=O)N5CCC(F)(F)CC5)cc4F)cc(-c4ccc(C(F)(F)F)cc4)c3o2)cn1 [Compound 749, (E)-3-(6-aminopyridin-3-yl)-N-((5-(4-(4,4-difluoropiperidine-1-carbonyl)-2-fluorophenyl)-7-(4-(trifluoromethyl)phenyl)benzofuran-2-yl)methyl)acrylamide] | > 10000 | 100 to 5000 | > 10 |  |  |  |
| Nc1ccc(/C=C/C(=O)NCc2cc3cc(-c4ccc(OC5CCC(F)(F)CC5)cc4)cc(-c4ccc(F)cc4)c3o2)cn1 [Compound 763, (E)-3-(6-aminopyridin-3-yl)-N-((5-(4-((4,4-difluorocyclohexyl)oxy)phenyl)-7-(4-fluorophenyl)benzofuran-2-yl)methyl)acrylamide] | 100 to 5000 | 100 to 5000 | > 10 |  |  |  |
| Nc1ccc(/C=C/C(=O)NCc2cc3cc(-c4ccc(C(=O)N5CCOCC5)c(F)c4)cc(Cl)c3o2)cn1 [Compound 549, (E)-3-(6-aminopyridin-3-yl)-N-((7-chloro-5-(3-fluoro-4-(morpholine-4-carbonyl)phenyl)benzofuran-2-yl)methyl)acrylamide] |  |  |  | 100 to 5000 | 100 to 5000 | > 10 |
| CC(C)(NC(=O)/C=C/c1ccc(N)nc1)c1cc2cc(-c3ccc(C(=O)N4CCOCC4)cc3)cc(Cl)c2o1 [Compound 512, (E)-3-(6-aminopyridin-3-yl)-N-(2-(7-chloro-5-(4-(morpholine-4-carbonyl)phenyl)benzofuran-2-yl)propan-2-yl)acrylamide] |  |  |  | > 10000 | > 10000 | > 10 |
| Nc1ccc(/C=C/C(=O)NCc2cc3cc(-c4ccc(F)c(C(=O)N5CCOCC5)n4)cc(Cl)c3o2)cn1 [Compound 581, (E)-3-(6-aminopyridin-3-yl)-N-((7-chloro-5-(5-fluoro-6-(morpholine-4-carbonyl)pyridin-2-yl)benzofuran-2-yl)methyl)acrylamide] |  |  |  | < 100 | < 100 | > 10 |
| Nc1ccc(/C=C/C(=O)NCc2cc3cc(-c4ccc(CC(=O)N5CCOCC5)cc4)cc(Cl)c3o2)cn1 [Compound 553, (E)-3-(6-Aminopyridin-3-yl)-N-((7-chloro-5-(4-(2-morpholino-2-oxoethyl)phenyl)benzofuran-2-yl)methyl)acrylamide] |  |  |  | 100 to 5000 | 100 to 5000 | > 10 |
| Nc1ccc(/C=C/C(=O)NCc2cc3cc(-c4ncc(C(=O)N5CCNCC5)cn4)cc(Cl)c3o2)cn1 [Compound 649, (E)-3-(6-aminopyridin-3-yl)-N-((7-chloro-5-(5-(piperazine-1-carbonyl)pyrimidin-2-yl)benzofuran-2-yl)methyl)acrylamide] |  |  |  | 100 to 5000 | 100 to 5000 | > 10 |
| Nc1ccc(/C=C/C(=O)NCc2cc3cc(-c4ccc(S(=O)(=O)N5CC(F)(F)C5)cc4)cc(C(F)(F)F)c3o2)cn1 [Compound 644, (E)-3-(6-aminopyridin-3-yl)-N-((5-(4-(3,3-difluoroazetidin-1-ylsulfonyl)phenyl)-7-(trifluoromethyl)benzofuran-2-yl)methyl)acrylamide] |  |  |  | 5000 to 10000 | 100 to 5000 | > 10 |
| Nc1ccc(/C=C/C(=O)NCc2cc3cc(-c4ccc(C(=S)N5CCC(F)(F)CC5)cc4)cc(-c4ccc(F)cc4F)c3o2)cn1 [Compound 706, (E)-3-(6-aminopyridin-3-yl)-N-((7-(2,4-difluorophenyl)-5-(4-(4,4-difluoropiperidine-1-carbonothioyl)phenyl)benzofuran-2-yl)methyl)acrylamide] | < 100 | < 100 | 0.1 to 5 |  |  |  |
| COc1cc(-c2ncc(C(=O)N3CCOCC3)cn2)cc2cc(CNC(=O)/C=C/c3ccc(N)nc3)oc12 [Compound 638, (E)-3-(6-aminopyridin-3-yl)-N-((7-methoxy-5-(5-(morpholine-4-carbonyl)pyrimidin-2-yl)benzofuran-2-yl)methyl)acrylamide] |  |  |  | 100 to 5000 | < 100 | > 10 |
| Nc1ccc(/C=C/C(=O)NCc2cc3cc(-c4ccc(C(=O)N5CCNCC5)cc4)cc(Cl)c3o2)cn1 [Compound 601] |  |  |  | 100 to 5000 | 100 to 5000 | > 10 |
| COc1cc(-c2ccc(C(=O)N3CCOCC3)cn2)cc2cc(CNC(=O)/C=C/c3ccc(N)nc3)oc12 [Compound 640, (E)-3-(6-aminopyridin-3-yl)-N-((7-methoxy-5-(5-(morpholine-4-carbonyl)pyridin-2-yl)benzofuran-2-yl)methyl)acrylamide] |  |  |  | < 100 | < 100 | > 10 |
| Nc1ccc(/C=C/C(=O)NCc2cc3cc(-c4cc(C(=O)N5CCOCC5)c(F)cn4)cc(C(F)(F)F)c3o2)cn1 [Compound 580, (E)-3-(6-aminopyridin-3-yl)-N-((5-(5-fluoro-4-(morpholine-4-carbonyl)pyridin-2-yl)-7-(trifluoromethyl)benzofuran-2-yl)methyl)acrylamide] |  |  |  | < 100 | < 100 | 5 to 10 |
| Nc1ccc(/C=C/C(=O)NCc2cc3cc(-c4cc(F)c(C(=O)N5CCOCC5)cc4F)cc(Cl)c3o2)cn1 [Compound 547, (E)-3-(6-aminopyridin-3-yl)-N-((7-chloro-5-(2,5-difluoro-4-(morpholine-4-carbonyl)phenyl)benzofuran-2-yl)methyl)acrylamide] |  |  |  | 100 to 5000 | 100 to 5000 | > 10 |
| Nc1ccc(/C=C/C(=O)NCc2cc3cc(-c4ccc(S(=O)(=O)N5CCC(F)(F)CC5)cc4)cc(C(F)(F)F)c3o2)cn1 [Compound 679, (E)-3-(6-aminopyridin-3-yl)-N-((5-(4-((4,4-difluoropiperidin-1-yl)sulfonyl)phenyl)-7-(trifluoromethyl)benzofuran-2-yl)methyl)acrylamide] | 100 to 5000 | 100 to 5000 | 0.1 to 5 |  |  |  |
| Cc1ccncc1-c1cc(-c2ccc(C(=O)N3CCC(F)(F)CC3)cc2)cc2cc(CNC(=O)/C=C/c3ccc(N)nc3)oc12 [Compound 744, (E)-3-(6-aminopyridin-3-yl)-N-((5-(4-(4,4-difluoropiperidine-1-carbonyl)phenyl)-7-(4-methylpyridin-3-yl)benzofuran-2-yl)methyl)acrylamide] | < 100 | < 100 | 0.1 to 5 |  |  |  |
| CN1CCN(C(=O)c2ccc(-c3cc(Cl)c4oc(CNC(=O)/C=C/c5ccc(N)nc5)cc4c3)cc2)CC1 [Compound 576, (E)-3-(6-aminopyridin-3-yl)-N-((7-chloro-5-(4-(4-methylpiperazine-1-carbonyl)phenyl)benzofuran-2-yl)methyl)acrylamide] |  |  |  | 100 to 5000 | 100 to 5000 | > 10 |
| Nc1ccc(/C=C/C(=O)NCc2cc3cc(-c4ccc(C(=O)N5CCC(F)(F)CC5)cc4)cc(-c4ccc(Cl)cc4F)c3o2)cn1 [Compound 739, (E)-3-(6-aminopyridin-3-yl)-N-((7-(4-chloro-2-fluorophenyl)-5-(4-(4,4-difluoropiperidine-1-carbonyl)phenyl)benzofuran-2-yl)methyl)acrylamide] | 100 to 5000 | 100 to 5000 | > 10 |  |  |  |
| Nc1ccc(/C=C/C(=O)NCc2nc3cc(-c4ccc(C(=O)N5CC(F)(F)C5)cc4)cc(Cl)c3o2)cn1 [Compound 509, (E)-3-(6-aminopyridin-3-yl)-N-((7-chloro-5-(4-(3,3-difluoroazetidine-1-carbonyl)phenyl)benzo[d]oxazol-2-yl)methyl)acrylamide] |  |  |  | 100 to 5000 | 100 to 5000 | > 10 |
